Results reported in patent US8580308B2, “Modafinil pharmaceutical compositions” (Cephalon, Inc., priority 2002, dated 2013).

How the values were obtained:
[1] = mice, single administration; cited from earlier work
density of modafinil = assay type: physicochemical
Text: Although primarily described herein with respect to “cumulative total number of particles,” it is within the ability of one skilled in the art to also make blends based upon weight of the portions used from each of the discrete lots, as detailed above. In particular, the density of modafinil is about 0.50 grams per cubic centimeter (bulk density) and about 0.60 grams per cubic centimeter (tap density). Using the density information, the statistical information that is described herein, and assuming the particles of modafinil are spherical, accurate determinations of the appropriate weight of particles in each discrete lot can be made. Similar calculations can be made with respect to the surface area of the particles.

[2] = monkeys, single administration; cited from earlier work
[3] = humans; cited from earlier work

NC(=O)C[S+]([O-])C(c1ccccc1)c1ccccc1 (centres unmarked) [modafinil, 2-(benzhydrylsulfinyl)acetamide]
locomotor activity [1]: increased locomotor activity | bulk density (density of modafinil): about 0.50 grams per cubic centimeter | tap density (density of modafinil): about 0.60 grams per cubic centimeter | nocturnal activity [2]: increased nocturnal activity | treatment of idiopathic hypersomnia and narcolepsy [3]: successfully tested
